Measurements taken from ChEMBL document CHEMBL5212743, “Selectivity Literature for EUbOPEN Chemogenomics Library wave 3” (2023).
Blank lines part the entries; values can stand above or below the molecule they belong to.

Key:
[1] = target: T1, Dual specificity mitogen-activated protein kinase kinase 5 (Homo sapiens) (UniProt Q13163); experiment: Selectivity interaction (KinomeScan (DiscoverX)) EUB0000305b MAP2K5; conditions: CellTiter-Glo assay (Promega, proliferation in ACHN cells): IC50 = […] nM, https://www.sgc-ffm.uni-frankfurt.de/#!specificprobeove, at 100 nM
T1 sequence (whole entry): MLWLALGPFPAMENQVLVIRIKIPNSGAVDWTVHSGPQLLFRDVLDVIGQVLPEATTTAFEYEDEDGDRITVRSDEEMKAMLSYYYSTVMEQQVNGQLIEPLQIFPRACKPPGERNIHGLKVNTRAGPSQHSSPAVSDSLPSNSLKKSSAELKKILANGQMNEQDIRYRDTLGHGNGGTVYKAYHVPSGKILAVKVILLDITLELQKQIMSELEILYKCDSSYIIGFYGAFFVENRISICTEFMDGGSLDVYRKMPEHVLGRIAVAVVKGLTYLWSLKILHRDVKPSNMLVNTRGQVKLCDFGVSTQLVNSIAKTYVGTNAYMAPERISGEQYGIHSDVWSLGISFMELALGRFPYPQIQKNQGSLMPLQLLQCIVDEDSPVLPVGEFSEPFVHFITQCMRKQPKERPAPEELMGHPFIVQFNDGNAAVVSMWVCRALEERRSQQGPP

[2] = target: Cyclin-dependent kinase 2 (Homo sapiens, UniProt P24941); experiment: Selectivity interaction (Kinase panel (enzymatic assay)) EUB0000698a CDK2
[3] = target: Mitogen-activated protein kinase kinase kinase 1 (Homo sapiens) (UniProt Q13233); experiment: Selectivity interaction (KinomeScan (DiscoverX)) EUB0000698a MAP3K1; conditions: at 10 µM
[4] = target: Serine/threonine-protein kinase 10 (Homo sapiens) (UniProt O94804); experiment: Selectivity interaction (KinomeScan (DiscoverX)) EUB0000698a STK10; conditions: at 10 µM
[5] = target: Calcium/calmodulin-dependent protein kinase kinase 2 (Homo sapiens) (UniProt Q96RR4); experiment: Selectivity interaction (KinomeScan (DiscoverX)) EUB0000169b CAMKK2; conditions: at 1 µM
[6] = target: Mitogen-activated protein kinase 14 (Homo sapiens, UniProt Q16539); conditions: at 10 µM
[7] = target: T2, Non-receptor tyrosine-protein kinase TYK2 (Homo sapiens, UniProt P29597); experiment: Selectivity interaction (KinomeScan (DiscoverX)) EUB0000178b TYK2; conditions: at 1 µM
[8] = target: T2, Non-receptor tyrosine-protein kinase TYK2; experiment: Selectivity interaction (Enzymatic assay) EUB0000178b TYK2
[9] = target: T3, Gamma-aminobutyric acid receptor subunit alpha-1 (Homo sapiens, UniProt P14867); experiment: Selectivity interaction (GPCR panel (PDSP screen)) EUB0000702a GABRA1
T3 sequence (P14867 whole entry): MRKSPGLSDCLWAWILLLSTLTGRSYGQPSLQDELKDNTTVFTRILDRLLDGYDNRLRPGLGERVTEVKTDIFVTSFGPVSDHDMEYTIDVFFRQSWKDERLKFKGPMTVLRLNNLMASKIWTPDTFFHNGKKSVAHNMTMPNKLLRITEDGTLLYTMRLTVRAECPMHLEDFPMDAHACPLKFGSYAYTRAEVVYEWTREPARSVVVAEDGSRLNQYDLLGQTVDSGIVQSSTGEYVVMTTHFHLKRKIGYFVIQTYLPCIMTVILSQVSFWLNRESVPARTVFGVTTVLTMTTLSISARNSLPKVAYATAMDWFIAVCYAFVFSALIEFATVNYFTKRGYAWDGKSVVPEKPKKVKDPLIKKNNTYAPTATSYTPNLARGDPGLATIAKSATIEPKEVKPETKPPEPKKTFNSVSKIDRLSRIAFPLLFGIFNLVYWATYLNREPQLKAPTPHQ

[10] = target: Tyrosine-protein kinase SYK (Homo sapiens, UniProt P43405); experiment: Selectivity interaction (KinomeScan (DiscoverX)) EUB0000702a SYK; conditions: at 1 µM
[11] = target: Bone morphogenetic protein receptor type-1B (Homo sapiens) (UniProt O00238); experiment: Selectivity interaction (KinomeScan (DiscoverX)) EUB0000702a BMPR1B; conditions: at 1 µM
[12] = target: T4, Homeodomain-interacting protein kinase 4 (Homo sapiens) (UniProt Q8NE63); conditions: at 1 µM
T4 sequence (whole entry): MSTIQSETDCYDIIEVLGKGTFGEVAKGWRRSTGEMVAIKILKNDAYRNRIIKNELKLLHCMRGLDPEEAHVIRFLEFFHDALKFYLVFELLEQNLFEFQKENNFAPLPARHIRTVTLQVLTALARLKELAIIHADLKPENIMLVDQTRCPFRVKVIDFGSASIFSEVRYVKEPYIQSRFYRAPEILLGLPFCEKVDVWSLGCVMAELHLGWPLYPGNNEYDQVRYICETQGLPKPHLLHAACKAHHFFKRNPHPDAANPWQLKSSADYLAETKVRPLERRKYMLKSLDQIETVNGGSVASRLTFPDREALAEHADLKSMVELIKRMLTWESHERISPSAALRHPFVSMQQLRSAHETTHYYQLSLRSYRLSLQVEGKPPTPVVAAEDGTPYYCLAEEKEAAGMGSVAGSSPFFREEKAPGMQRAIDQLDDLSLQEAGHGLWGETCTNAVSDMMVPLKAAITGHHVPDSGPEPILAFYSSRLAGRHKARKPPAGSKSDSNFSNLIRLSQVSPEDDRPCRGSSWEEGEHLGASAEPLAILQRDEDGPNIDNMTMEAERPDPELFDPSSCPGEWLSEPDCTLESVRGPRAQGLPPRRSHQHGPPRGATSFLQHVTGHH

[13] = target: Platelet-derived growth factor receptor beta (Homo sapiens, UniProt P09619); conditions: at 1 µM
[14] = target: Tyrosine-protein kinase Blk (Homo sapiens, UniProt P51451); conditions: at 1 µM
Tyrosine-protein kinase Blk, sequence (P51451 whole entry, looked up): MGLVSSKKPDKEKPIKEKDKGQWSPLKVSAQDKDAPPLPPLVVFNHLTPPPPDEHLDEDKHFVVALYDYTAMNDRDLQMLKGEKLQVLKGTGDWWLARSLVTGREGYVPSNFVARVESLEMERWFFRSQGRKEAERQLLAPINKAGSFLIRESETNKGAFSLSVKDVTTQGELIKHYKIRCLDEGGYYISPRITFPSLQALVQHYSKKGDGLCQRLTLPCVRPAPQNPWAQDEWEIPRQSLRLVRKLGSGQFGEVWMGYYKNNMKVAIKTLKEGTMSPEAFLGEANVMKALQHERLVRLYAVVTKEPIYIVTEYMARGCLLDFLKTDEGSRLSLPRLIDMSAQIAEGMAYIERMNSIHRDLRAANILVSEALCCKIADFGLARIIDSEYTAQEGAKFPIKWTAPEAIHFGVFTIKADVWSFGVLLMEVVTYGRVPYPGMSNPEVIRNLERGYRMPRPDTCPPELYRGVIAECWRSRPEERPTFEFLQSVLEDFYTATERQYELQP

T2 sequence (P29597 whole entry): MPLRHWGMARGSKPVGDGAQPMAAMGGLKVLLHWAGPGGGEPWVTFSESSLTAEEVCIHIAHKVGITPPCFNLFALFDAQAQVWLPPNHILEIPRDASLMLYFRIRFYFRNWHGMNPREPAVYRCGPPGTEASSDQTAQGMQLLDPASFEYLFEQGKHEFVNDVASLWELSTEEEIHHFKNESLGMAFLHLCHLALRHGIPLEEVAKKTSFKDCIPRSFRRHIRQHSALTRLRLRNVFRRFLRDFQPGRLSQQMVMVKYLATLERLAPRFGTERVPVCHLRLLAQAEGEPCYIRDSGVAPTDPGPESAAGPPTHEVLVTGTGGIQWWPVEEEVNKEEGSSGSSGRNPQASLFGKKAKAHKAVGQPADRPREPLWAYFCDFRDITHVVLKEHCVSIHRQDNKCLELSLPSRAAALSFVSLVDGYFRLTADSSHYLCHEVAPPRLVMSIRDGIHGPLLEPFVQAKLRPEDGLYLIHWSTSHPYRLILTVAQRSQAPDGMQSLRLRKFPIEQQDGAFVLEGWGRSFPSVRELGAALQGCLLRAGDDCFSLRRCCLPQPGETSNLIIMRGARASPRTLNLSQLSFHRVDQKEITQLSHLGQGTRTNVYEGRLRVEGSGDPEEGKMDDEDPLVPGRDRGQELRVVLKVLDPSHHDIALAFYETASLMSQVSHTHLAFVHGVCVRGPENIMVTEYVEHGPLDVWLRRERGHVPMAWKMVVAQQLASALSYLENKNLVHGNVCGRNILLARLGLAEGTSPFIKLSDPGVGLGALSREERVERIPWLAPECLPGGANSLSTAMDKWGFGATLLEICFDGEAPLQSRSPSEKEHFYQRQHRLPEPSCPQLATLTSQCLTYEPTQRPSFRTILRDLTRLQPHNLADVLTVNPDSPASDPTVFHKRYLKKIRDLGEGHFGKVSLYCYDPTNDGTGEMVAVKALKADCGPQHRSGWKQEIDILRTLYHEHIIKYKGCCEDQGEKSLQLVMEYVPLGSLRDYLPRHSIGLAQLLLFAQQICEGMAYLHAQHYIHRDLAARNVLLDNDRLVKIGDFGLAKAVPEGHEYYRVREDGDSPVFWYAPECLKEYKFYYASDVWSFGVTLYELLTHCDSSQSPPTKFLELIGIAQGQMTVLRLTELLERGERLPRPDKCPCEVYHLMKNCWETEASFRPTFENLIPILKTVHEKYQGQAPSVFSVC
Mitogen-activated protein kinase 14, sequence (Q16539 whole entry): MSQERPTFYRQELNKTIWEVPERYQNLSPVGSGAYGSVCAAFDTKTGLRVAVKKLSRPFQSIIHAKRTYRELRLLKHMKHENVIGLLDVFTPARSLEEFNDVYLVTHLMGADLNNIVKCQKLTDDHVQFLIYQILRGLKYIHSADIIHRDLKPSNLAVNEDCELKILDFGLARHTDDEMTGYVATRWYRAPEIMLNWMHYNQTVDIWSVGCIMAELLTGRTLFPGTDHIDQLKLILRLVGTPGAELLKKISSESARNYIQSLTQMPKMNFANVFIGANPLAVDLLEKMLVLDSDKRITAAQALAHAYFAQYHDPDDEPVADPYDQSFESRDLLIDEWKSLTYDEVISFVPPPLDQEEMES
Bone morphogenetic protein receptor type-1B (Homo sapiens), sequence (O00238 whole entry): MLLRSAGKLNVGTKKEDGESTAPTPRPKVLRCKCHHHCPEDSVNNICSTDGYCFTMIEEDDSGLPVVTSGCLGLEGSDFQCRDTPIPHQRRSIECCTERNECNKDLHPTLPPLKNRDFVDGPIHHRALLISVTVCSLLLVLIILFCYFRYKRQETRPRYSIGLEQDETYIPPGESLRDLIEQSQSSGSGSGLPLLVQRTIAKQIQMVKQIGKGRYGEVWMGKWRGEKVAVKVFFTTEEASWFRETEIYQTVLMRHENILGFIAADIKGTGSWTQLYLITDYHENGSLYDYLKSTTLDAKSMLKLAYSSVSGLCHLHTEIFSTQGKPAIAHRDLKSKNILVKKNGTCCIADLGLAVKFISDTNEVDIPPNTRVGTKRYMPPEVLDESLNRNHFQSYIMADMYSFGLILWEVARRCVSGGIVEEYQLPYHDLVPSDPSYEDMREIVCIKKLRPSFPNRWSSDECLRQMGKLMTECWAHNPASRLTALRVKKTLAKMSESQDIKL
Serine/threonine-protein kinase 10 (Homo sapiens), sequence (O94804 whole entry, looked up): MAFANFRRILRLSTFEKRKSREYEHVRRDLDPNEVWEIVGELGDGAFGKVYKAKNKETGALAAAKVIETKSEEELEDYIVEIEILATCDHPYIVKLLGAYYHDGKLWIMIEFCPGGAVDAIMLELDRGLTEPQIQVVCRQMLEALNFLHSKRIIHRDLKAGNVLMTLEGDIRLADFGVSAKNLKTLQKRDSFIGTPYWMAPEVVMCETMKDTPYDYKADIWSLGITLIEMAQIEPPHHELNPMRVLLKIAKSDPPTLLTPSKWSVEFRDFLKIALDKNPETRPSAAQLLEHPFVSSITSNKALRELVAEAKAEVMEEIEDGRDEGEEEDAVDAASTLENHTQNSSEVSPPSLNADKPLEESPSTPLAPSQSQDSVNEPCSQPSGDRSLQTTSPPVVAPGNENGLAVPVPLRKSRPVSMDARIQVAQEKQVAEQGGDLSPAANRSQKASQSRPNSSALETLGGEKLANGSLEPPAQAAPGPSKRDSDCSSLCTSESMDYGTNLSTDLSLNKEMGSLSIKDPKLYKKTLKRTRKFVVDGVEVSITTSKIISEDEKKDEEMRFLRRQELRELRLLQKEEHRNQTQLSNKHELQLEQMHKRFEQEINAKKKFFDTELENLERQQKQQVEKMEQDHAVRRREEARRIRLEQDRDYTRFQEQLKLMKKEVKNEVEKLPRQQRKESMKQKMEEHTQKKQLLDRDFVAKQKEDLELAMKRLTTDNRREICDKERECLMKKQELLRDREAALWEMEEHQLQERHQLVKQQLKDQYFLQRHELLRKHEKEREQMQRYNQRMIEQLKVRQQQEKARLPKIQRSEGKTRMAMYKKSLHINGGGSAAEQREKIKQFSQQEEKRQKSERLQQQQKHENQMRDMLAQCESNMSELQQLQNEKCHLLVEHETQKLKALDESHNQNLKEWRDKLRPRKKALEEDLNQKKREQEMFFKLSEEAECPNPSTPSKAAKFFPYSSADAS
Mitogen-activated protein kinase kinase kinase 1 (Homo sapiens), sequence (Q13233 whole entry): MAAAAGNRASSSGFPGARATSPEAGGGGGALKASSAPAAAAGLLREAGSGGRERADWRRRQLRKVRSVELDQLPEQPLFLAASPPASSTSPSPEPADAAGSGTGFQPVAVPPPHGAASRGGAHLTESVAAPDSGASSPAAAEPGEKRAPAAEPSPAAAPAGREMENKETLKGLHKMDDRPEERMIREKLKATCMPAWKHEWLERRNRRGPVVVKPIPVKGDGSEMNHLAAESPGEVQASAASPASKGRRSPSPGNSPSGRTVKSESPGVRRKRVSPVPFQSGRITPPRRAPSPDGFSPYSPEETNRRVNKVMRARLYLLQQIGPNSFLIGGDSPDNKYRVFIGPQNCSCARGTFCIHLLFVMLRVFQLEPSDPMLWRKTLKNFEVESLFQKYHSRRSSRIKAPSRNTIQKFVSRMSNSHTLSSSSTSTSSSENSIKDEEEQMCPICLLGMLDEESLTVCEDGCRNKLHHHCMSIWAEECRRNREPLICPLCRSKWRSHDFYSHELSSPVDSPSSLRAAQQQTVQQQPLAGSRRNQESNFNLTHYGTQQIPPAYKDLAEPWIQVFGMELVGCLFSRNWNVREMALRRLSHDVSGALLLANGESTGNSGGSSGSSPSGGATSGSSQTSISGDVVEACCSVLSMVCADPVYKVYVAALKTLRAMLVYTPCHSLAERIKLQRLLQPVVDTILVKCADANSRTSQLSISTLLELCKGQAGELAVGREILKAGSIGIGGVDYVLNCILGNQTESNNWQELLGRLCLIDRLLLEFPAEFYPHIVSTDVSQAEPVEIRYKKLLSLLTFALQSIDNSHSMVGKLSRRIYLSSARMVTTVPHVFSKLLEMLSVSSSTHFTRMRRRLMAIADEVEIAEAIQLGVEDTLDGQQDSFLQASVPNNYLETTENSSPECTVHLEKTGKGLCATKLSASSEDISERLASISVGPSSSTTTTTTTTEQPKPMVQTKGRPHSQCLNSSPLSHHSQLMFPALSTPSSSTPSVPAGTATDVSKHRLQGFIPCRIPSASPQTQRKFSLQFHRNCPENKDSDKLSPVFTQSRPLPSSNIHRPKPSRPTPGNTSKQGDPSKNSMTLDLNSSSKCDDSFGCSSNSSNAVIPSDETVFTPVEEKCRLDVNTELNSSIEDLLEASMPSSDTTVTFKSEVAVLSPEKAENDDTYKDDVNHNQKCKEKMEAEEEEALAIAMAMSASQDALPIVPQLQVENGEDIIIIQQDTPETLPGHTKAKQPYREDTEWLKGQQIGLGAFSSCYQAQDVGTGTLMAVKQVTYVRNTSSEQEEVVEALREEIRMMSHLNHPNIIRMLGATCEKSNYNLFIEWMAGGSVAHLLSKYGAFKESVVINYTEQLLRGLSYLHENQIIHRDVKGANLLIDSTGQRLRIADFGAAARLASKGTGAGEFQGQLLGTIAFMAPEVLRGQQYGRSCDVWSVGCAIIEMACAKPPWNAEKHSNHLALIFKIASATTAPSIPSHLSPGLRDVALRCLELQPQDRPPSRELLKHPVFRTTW

% of control [1]: 8.5%
Structure (SMILES): C[C@H](c1ccnc(Nc2nc3ccc(-c4cc(N(C)C)ncn4)cc3[nH]2)c1)N1CCN(C(=O)CC(F)(F)F)CC1 [BAY-985]

IC50 [2]: 7600 nM | % of control [3]: 1.6% | % of control [4]: 0%
Structure (SMILES): COc1cc2ncn(-c3cc(OCc4ccccc4C(F)(F)F)c(C(N)=O)s3)c2cc1OC [GW843682X]

% of control [5]: 3.4% | % of control [6]: 100%
Structure (SMILES): CC[C@@H]1C(=O)N(C)c2cnc(Nc3ccc(C(=O)NC4CCN(C)CC4)cc3OC)nc2N1C1CCCC1

% of control [7]: 2.7% | IC50 [8]: 254 nM
Structure (SMILES): CN1C(=O)c2sccc2N(C)c2nc(Nc3ccc(S(N)(=O)=O)cc3)ncc21

Ki [9]: 1480 nM | % of control [10]: 5.7% | % of control [11]: 3.6%
Structure (SMILES): CN(c1ccnc(CNc2nc(Nc3ccc4c(c3)CC(=O)N4)ncc2C(F)(F)F)n1)S(C)(=O)=O [PF-00911705]

Structure (SMILES): CCOc1cn(-c2ccc(F)cc2C)nc1C(=O)Nc1ccc(Oc2ccnc3cc(OC)c(OC)cc23)c(F)c1
% of control [12]: < 10% | % of control [13]: < 10% | % of control [14]: < 10%
